Measurements as given in patent publication US20080103152A1, “Novel Diazabicyclononene Derivative” (Actelion Pharmaceuticals Ltd, priority 2004, published 2008).

Experiments:
recombinant human renin = molecular target: T1, recombinant human renin (Homo sapiens, UniProt P00797); assay: Primary renin inhibition assay: IC50 in buffer, 384 well MTP (Ang I measured by EIA); format: biochemical; details: human tetradecapeptide substrate, 37° C. for 3 h, read-out: IC50 of renin inhibition (Ang I decrease)
T1 sequence (P00797 67-406): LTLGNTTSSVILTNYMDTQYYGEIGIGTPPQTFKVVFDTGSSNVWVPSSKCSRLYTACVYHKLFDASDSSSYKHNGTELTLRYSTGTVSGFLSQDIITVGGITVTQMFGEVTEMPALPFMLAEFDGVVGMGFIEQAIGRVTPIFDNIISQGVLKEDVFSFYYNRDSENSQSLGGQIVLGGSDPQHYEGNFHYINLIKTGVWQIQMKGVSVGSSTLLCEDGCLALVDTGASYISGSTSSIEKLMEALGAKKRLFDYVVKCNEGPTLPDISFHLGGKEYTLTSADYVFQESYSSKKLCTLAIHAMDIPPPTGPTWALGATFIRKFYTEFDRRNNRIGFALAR
Experimental: 1. Enzyme Immuno Assay (EIA) to Estimate Ang I Accumulation and Renin Inhibition
1.1 Preparation of Ang I-BSA Conjugate
1.3 mg (1 μmol) of Ang I [1-10 (Bachem, H-1680)] and 17 mg (0.26 μmol) of BSA (Fluka, 05475) were dissolved in 4 mL of 0.1M phosphate buffer, pH 7.4, after which 2 mL of a 1:100 dilution of glutaraldehyde in H2O (Sigma G-5882) was added dropwise. The mixture was incubated overnight at 4° C., then dialyzed against 2 liters of 0.9% NaCl, twice for 4 h at rt, followed by dialysis against 2 liters of PBS 1× overnight at rt. The solution was then filtered with a Syringe filter, 0.45 μm (Nalgene, Cat. No. 194-2545). The conjugate can be stored in polypropylene tubes in 0.05% sodium azide at 4° C. for at least 12 months.
1.2 Preparation of BSA-Ang I Coated MTP […]
The renin assay was adapted from an assay described before (Fischli W. et al., Hypertension, 1991, 18:22-31) and consists of two steps: in the first step, recombinant human renin is incubated with its substrate (commercial human tetradecapeptide renin substrate) to create the product Angiotensin I (Ang I). In the second step, the accumulated Ang I is measured by an immunological assay (enzyme immuno assay, EIA). […]

[1] = test system: double transgenic rats with human renin and human angiotensinogen; assay: Hemodynamic measurements (telemetry method), mean arterial blood pressure; format: in vivo, rat; details: for blood pressure decrease (maximal decrease of mean arterial pressure versus control group): hypertensive female double transgenic rats
Experimental: Hemodynamic Measurements (Telemetry Method)
Animals—Female double transgenic rats with human renin and human angiotensinogen were purchased from RCC Ltd, Füllingsdorf, Switzerland. All animals were maintained under identical conditions and had free access to normal pelleted rat chow and water. Rats were initially treated with enalapril (1 mg/kg/day) during 2 months. After approximately two weeks following cessation of enalapril treatment the double transgenic rats become hypertensive and reach mean arterial blood pressures in the range of 160-170 mmHg.
Transmitter implantation—The rats were anaesthetised with a mixture of 90 mg/kg Ketamin-HCl (Ketavet, Parke-Davis, Berlin FRG) and 10 mg/kg xylazin (Rompun, Bayer, Leverkusen, FRG) i.p. The pressure transmitter was implanted under aseptic conditions into the peritoneal cavity with the sensing catheter placed in the descending aorta below the renal arteries pointing upstream. The transmitter was sutured to the abdominal musculature and the skin closed.
Telemetry-System—Telemetry units were obtained from Data Sciences (St. Paul, Minn.). […] The tip of the catheter was filled with a viscous gel that prevents blood reflux and was coated with an antithrombogenic film to inhibit thrombus formation. The implants (length=[…], diameter=1.2 cm) weighted 9 g and have a typical battery life of 6 months. A receiver platform (RPC-1, Data Sciences) connected the radio signal to digitized input that was sent to a dedicated personal computer (Compaq, deskpro). Arterial pressures were calibrated by using an input from an ambient-pressure reference (APR-1, Data Sciences). Systolic, mean and diastolic blood pressure was expressed in millimeter of mercury (mmHg).
[…] The effect of the test substance is expressed as maximal decrease of mean arterial pressure (MAP) in the treated group versus the control group.

O=C(C1=C(c2ccc(CCCOc3c(F)ccc(F)c3Cl)cc2)C[C@@H]2CNC[C@H]1N2)N(Cc1cccc(Cl)c1Cl)C1CC1 [Compound (I′), (1R,5S)-7-{4-[3-(2-Chloro-3,6-difluorophenoxy)propyl]phenyl}-3,9-diazabicyclo[3.3.1]non-6-ene-6-carboxylic acid cyclopropyl-(2,3-dichlorobenzyl)amide]
IC50 (recombinant human renin): 0.5 nM | activity in the animal model (in words) ([1]; oral gavage, double transgenic rats): active | blood pressure decrease (maximal decrease of mean arterial pressure versus control group) ([1]; single oral dose of 3 mg/kg): 13 mmHg | blood pressure decrease (maximal decrease of mean arterial pressure versus control group) ([1]; single oral dose of 10 mg/kg): 26 mmHg
